Assay results published in patent publication US9695155B2, “Herbicidal substituted pyrimidinyloxy benzene compounds” (E. I. DU PONT DE NEMOURS AND COMPANY, priority 2013, dated 2017).

Tests used:
[1] = test system: wild oat; assay: Test C postemergence; type: in vivo, Avena fatua; details: for Plant response rating, Oat, Wild: scale 0 to 100 (0 no effect, 100 complete control)
Summary of the method: (§1)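 Plants were kept under greenhouse conditions for 13–15 days following spray. Pre-emergent application went to soil (loam–sand), post-emergent to foliage at 1–4 leaves. Evaluation: visual, percent control against untreated checks.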

[2] = test system: large (Lg) crabgrass; assay: Test C preemergence; type: in vivo, Digitaria sanguinalis; details: for Crabgrass, Large plant response rating: preemergence; for Plant response rating, Crabgrass, Large: Preemergence, 31 g ai/ha, scale 0 to 100, 0 no effect, 100 complete control
Summary of the method: as §1

[3] = test system: corn; assay: Test A preemergence; type: in vivo, Zea mays
Summary of the method: (§2)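 Compounds in non-phytotoxic solvent with surfactant applied as soil spray preemergence, or postemergence to plants 2-10 cm at one- to two-leaf stage, in loam/sand. After approximately 10 days in greenhouse, injury rated visually versus untreated controls, 0 (no effect) to 100 (complete control).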

[4] = test system: blackgrass; assay: Test C preemergence; type: in vivo, Alopecurus myosuroides; details: for Blackgrass plant response rating: preemergence; for Plant response rating, Blackgrass: Preemergence, 31 g ai/ha, scale 0 to 100, 0 no effect, 100 complete control
Summary of the method: as §1

[5] = test system: morningglory; assay: Test A preemergence; type: in vivo, Ipomoea spp.; details: for Morningglory plant response rating: 0 to 100 scale, 0 no effect, 100 complete control, approx. 10 days
Summary of the method: as §2

[6] = test system: morningglory; assay: Test A postemergence; type: in vivo, Ipomoea spp.
Summary of the method: as §2

[7] = test system: barnyardgrass; assay: Test B flooded paddy test; type: in vivo, Echinochloa crus-galli; details: Flood, 250 g ai/ha; 0 to 100 scale where 0 is no effect and 100 is complete control
Summary of the method: (§3)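 Evaluation is visual, against untreated controls, 13 to 15 days after treatment. Before treatment, plants reached the 2-leaf stage; pots were then flooded 3 cm deep, compound was added to the water, and that level was maintained. Ratings run 0 to 100, with 100 meaning complete control.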

[8] = test system: blackgrass; assay: Test C postemergence; type: in vivo, Alopecurus myosuroides
Summary of the method: as §1

[9] = test system: johnsongrass; assay: Test C postemergence; type: in vivo, Sorghum halepense
Summary of the method: as §1

[10] = test system: Heteranthera limosa; assay: Test B flooded paddy test; type: in vivo; details: Flood, 250 g ai/ha; 0 to 100 scale where 0 is no effect and 100 is complete control
Summary of the method: as §3

[11] = test system: large (Lg) crabgrass; assay: Test A postemergence; type: in vivo, Digitaria sanguinalis
Summary of the method: as §2

[12] = test system: wheat, winter; assay: Test C preemergence; type: in vivo, Triticum aestivum; details: for Wheat plant response rating: preemergence; for Plant response rating, Wheat: Preemergence, 31 g ai/ha, scale 0 to 100, 0 no effect, 100 complete control
Summary of the method: as §1

[13] = test system: wheat; assay: Test A postemergence; type: in vivo, Triticum aestivum
Summary of the method: as §2

[14] = test system: barnyardgrass; assay: Test A preemergence; type: in vivo, Echinochloa crus-galli
Summary of the method: as §2

[15] = test system: large (Lg) crabgrass; assay: Test A preemergence; type: in vivo, Digitaria sanguinalis
Summary of the method: as §2

[16] = test system: Italian ryegrass; assay: Test C preemergence; type: in vivo, Lolium multiflorum; details: for Ryegrass, Italian plant response rating: preemergence; for Plant response rating, Ryegrass, Italian: Preemergence, 31 g ai/ha, scale 0 to 100, 0 no effect, 100 complete control
Summary of the method: as §1

[17] = 125 g ai/ha, postemergence, visual rating
[18] = 16 g ai/ha, scale 0 to 100 (0 no effect, 100 complete control)
[19] = 62 g ai/ha, scale 0 (no effect) to 100 (complete control)
[20] = 125 g ai/ha, scale 0 (no effect) to 100 (complete control)
[21] = 125 g ai/ha, 0 to 100 scale where 0 is no effect and 100 is complete control
[22] = 500 g ai/ha, 0 to 100 scale, 0 no effect, 100 complete control, approx. 10 days
[23] = 500 g ai/ha, 0 to 100 scale where 0 is no effect and 100 is complete control
[24] = 16 g ai/ha, postemergence, visual rating, scale 0 to 100 (0 no effect, 100 complete control), 13 to 15 days
[25] = 125 g ai/ha, postemergence, visual rating, scale 0 to 100 (0 no effect, 100 complete control)
[26] = Postemergence, 31 g ai/ha, scale 0 to 100 (0 no effect, 100 complete control), 13 to 15 days
[27] = Postemergence, 62 g ai/ha, scale 0 to 100 (0 no effect, 100 complete control)
[28] = 16 g ai/ha, postemergence, 0 is no effect, 100 is complete control
[29] = 1000 g ai/ha, 0 to 100 scale, 0 no effect, 100 complete control

SMILES | Plant response rating, Oat, Wild [1, 17] | Plant response rating, Oat, Wild ([1]; Postemergence, 62 g ai/ha) | Crabgrass, Large plant response rating [2, 18] | Crabgrass, Large plant response rating [2, 19] | Crabgrass, Large plant response rating [2, 20] | Plant response rating, Crabgrass, Large [2] | Blackgrass plant response rating [4, 18] | Blackgrass plant response rating [4, 19] | Blackgrass plant response rating [4, 20] | Plant response rating, Blackgrass [4] | Plant response rating, Barnyardgrass [7] | Plant response rating, Blackgrass [8, 25] | Plant response rating, Blackgrass [8, 26] | Plant response rating, Blackgrass [8, 27] | Plant response rating, Johnsongrass [9, 25] | Plant response rating, Johnsongrass [9, 27] | Plant response rating, Ducksalad [10] | Wheat plant response rating [12, 18] | Wheat plant response rating [12, 19] | Wheat plant response rating [12, 20] | further results
N#Cc1cnn(-c2c(C#N)cccc2Oc2ncc(F)cn2)c1 [Compound 111] | 5 | 5 | 98 | 100 | 100 | 100 | 20 | 40 | 90 | 10 | 0 | 10 | 0 | 5 | 10 | 5 | 70 | 0 | 0 | 20 | Plant response rating, Corn [3, 21]: 20; Corn plant response rating [3, 22]: 50; Plant response rating, Morningglory [5, 21]: 90; Morningglory plant response rating ([5]; 500 g ai/ha): 100; Plant response rating, Morningglory [6, 23]: 90; Blackgrass plant response rating [8, 24]: 0; Johnsongrass plant response rating [9, 24]: 5; Plant response rating, Crabgrass, Large [11, 21]: 60; Plant response rating, Crabgrass, Large [11, 23]: 90; Plant response rating, Wheat [12]: 30; Plant response rating, Wheat [13, 23]: 80; Plant response rating, Barnyardgrass [14, 21]: 90; Barnyardgrass plant response rating [14, 22]: 100; Plant response rating, Crabgrass, Large [15, 21]: 100; Crabgrass, Large plant response rating [15, 22]: 100; Ryegrass, Italian plant response rating [16, 18]: 0; Ryegrass, Italian plant response rating [16, 19]: 40; Ryegrass, Italian plant response rating [16, 20]: 60; Plant response rating, Ryegrass, Italian [16]: 0
N#Cc1cn(-c2c(Br)cccc2Oc2ncc(Cl)cn2)nn1 [Compound 116] | 15 | 5 | 5 | 100 | 100 | 100 | 0 | 60 | 85 | 10 | 0 | 25 | 5 | 10 | 15 | 0 | 60 | 0 | 0 | 5 | Plant response rating (0 to 100), Oat, Wild [1, 28]: 5; Plant response rating, Corn [3, 29]: 30; Morningglory plant response rating ([5]; 1000 g ai/ha): 100; Plant response rating, Morningglory [6, 29]: 100; Plant response rating (0 to 100), Blackgrass [8, 28]: 0; Plant response rating (0 to 100), Johnsongrass [9, 28]: 0; Plant response rating, Crabgrass, Large [11, 29]: 100; Plant response rating, Wheat [12]: 0; Plant response rating, Wheat [13, 29]: 50; Plant response rating, Barnyardgrass [14, 29]: 90; Plant response rating, Crabgrass, Large [15, 29]: 100; Ryegrass, Italian plant response rating [16, 18]: 0; Ryegrass, Italian plant response rating [16, 19]: 10; Ryegrass, Italian plant response rating [16, 20]: 35; Plant response rating, Ryegrass, Italian [16]: 0
